Assay results published in patent publication US20230276831A1, “Food/Beverage Article” (Kikkoman Corporation, priority 2020, published 2023).

How the values were obtained:
[1] = tested on: Lactobacillus fructivores (NBRC 13954); test: Antimicrobial action of oxygen-containing heterocyclic compounds in soy sauce (Test Example 7); format: cell-based; conditions: NBRC13954, 168 h, salt 4% (w/v), alcohol 5% (v/v); for activity at 0.1 ppm: test substance 0.1 ppm; for activity at 0.5 ppm: test substance 0.5 ppm; for activity at 1 ppm: test substance 1 ppm; for activity at 5 ppm: test substance 5 ppm; for activity at 25 ppm: test substance 25 ppm; for activity at 50 ppm: test substance 50 ppm
Experimental: (§1) Commercially available whole soybean soy sauce (produced by Kikkoman Corporation) was electrodialyzed and then concentrated under reduced pressure to produce soy sauce at a salt concentration of 0% (w/v) and an alcohol concentration of 0% (v/v). Then, salt and/or alcohol was added to the above-mentioned obtained soy sauce, and the mixture was then heat-treated to produce soy sauce at a salt concentration of 4% (w/v) and an alcohol concentration of 5% (v/v).
The test substance described in Table 21 was added to the soy sauce produced in Test Example 6 to concentrations of 0.1 ppm, 0.5 ppm, 1 ppm, 5 ppm, 25 ppm, and 50 ppm. Lactic acid bacteria (Lactobacillus fructivores (NBRC 13954)) were then added to 10^4 to 10^5 cells/mL and cultured at 30° C. for 7 days. After the culture, the number of lactic acid bacteria was measured using Difco Lactobacilli MRS Agar. Soy sauce to which the test substance was not added was used as a control group, and the antimicrobial activity was evaluated in comparison with the number of lactic acid bacteria in the control group. The evaluation was performed using the following criterion.
• A: The bacterial count decreases to less than 10% of the bacterial count of a control group. • B: The bacterial count decreases to 10% or more and less than 50% of the bacterial count of the control group. • C: The bacterial count decreases to 50% or more and less than 100% of the bacterial count of the control group. • D: The bacterial count is the same as the bacterial count of the control group.

[2] = tested on: Lactobacillus rennini (DSM 20253); test: Antimicrobial action of oxygen-containing heterocyclic compounds in soy sauce (Test Example 6); format: cell-based; set-up: key to Antimicrobial activity: A: The bacterial count decreases to less than 10% of the bacterial count of the control group.; B: The bacterial count decreases to 10% or more and less than 50% of the bacterial count of the control group.; C: The bacterial count decreases to 50% or more and less than 100% of the bacterial count of control group.; D: The bacterial count is the same as the bacterial count of the control group; conditions: salt 4% (w/v), alcohol 5% (v/v); for activity at 1 ppm / activity at 5 ppm / activity at 10 ppm / activity at 25 ppm / activity at 50 ppm / activity at 100 ppm: Loigolactobacillus rennini, DSM20253, 168 h; for activity at 1 ppm / Antimicrobial activity: test substance 1 ppm; for activity at 5 ppm: test substance 5 ppm; for activity at 10 ppm: test substance 10 ppm; for activity at 25 ppm: test substance 25 ppm; for activity at 50 ppm: test substance 50 ppm; for activity at 100 ppm: test substance 100 ppm
Experimental: as §1
The test substance described in Table 20 was added to the above-mentioned produced soy sauce to concentrations of 1 to 100 ppm. Lactic acid bacteria (Lactobacillus rennini (DSM 20253)) were then added to 10^6 to 10^7 cells/mL and cultured at 30° C. for 7 days. After the culture, the number of lactic acid bacteria was measured using the GAM agar medium “Nissui”. Soy sauce to which licoricidin was not added was used as a control group, and the antimicrobial activity was evaluated in comparison with the number of lactic acid bacteria in the control group. The evaluation was performed using the criterion shown below.
• A: The bacterial count decreases to less than 10% of the bacterial count of the control group. • B: The bacterial count decreases to 10% or more and less than 50% of the bacterial count of control group. • C: The bacterial count decreases to 50% or more and less than 100% of the bacterial count of the control group. • D: The bacterial count is the same as the bacterial count of the control group. • -: Not evaluated

Row | Compound | activity at 0.1 ppm [1] | activity at 0.5 ppm [1] | activity at 1 ppm [1] | activity at 5 ppm [1] | activity at 25 ppm [1] | activity at 50 ppm [1] | activity at 1 ppm [2] | activity at 5 ppm [2] | activity at 10 ppm [2] | activity at 25 ppm [2] | activity at 50 ppm [2] | activity at 100 ppm [2] | Antimicrobial activity [2]
1 | COc1c(CC=C(C)C)c(O)cc2c1C[C@H](c1ccc(O)cc1O)CO2 [Glyasperin C, (3R)-3β(2,4-dihydroxyphenyl)-5-methoxy-6-(3-methyl-2-butenyl)-3,4-dihydro-2H-1-benzopyran-7-ol] | 10 to 50% | 10 to 50% | 10 to 50% | 10 to 50% | 10 to 50% | < 10% | 10 to 50% | 10 to 50% | 10 to 50% | < 10% | < 10% | < 10% | 
2 | COc1cc2oc(-c3ccc(O)cc3O)cc2c(OC)c1CC=C(C)C [Gancaonin I, 5-(3-methyl-2-butenyl)-2-(2,4-dihydroxyphenyl)-4,6-dimethoxybenzofuran] | 10 to 50% | 50 to 100% | 10 to 50% | 50 to 100% | 10 to 50% | < 10% | 50 to 100% | < 10% | < 10% | < 10% | < 10% | < 10% | 
3 | COc1cc2oc(=O)c(-c3ccc(O)cc3O)cc2c(OC)c1CC=C(C)C [Glycyrin, 3-(2,4-dihydroxyphenyl)-5,7-dimethoxy-6-(3-methyl-2-butenyl)-2H-1-benzopyran-2-one] | 10 to 50% | 10 to 50% | 10 to 50% | 10 to 50% | 10 to 50% | 10 to 50% |  | 10 to 50% | 10 to 50% | < 10% | < 10% | < 10% | D
4 | CC(C)=CCc1cc(-c2coc3cc(O)c(CC=C(C)C)c(O)c3c2=O)cc(O)c1O [Isoangustone A, 3-[3,4-dihydroxy-5-(3-methyl-2-butenyl)phenyl]-5,7-dihydroxy-6-(3-methyl-2-butenyl)-4H-chromen-4-one] | 10 to 50% | 10 to 50% | 50 to 100% | 10 to 50% | < 10% | < 10% | 10 to 50% | < 10% | < 10% | < 10% | < 10% | < 10% | 
5 | CC(C)=CCc1c(O)c(CC=C(C)C)c2occ(-c3ccc(O)cc3)c(=O)c2c1O [8-(γ,γ-dimethylallyl)-wighteone, 6,8-bis(3-methyl-2-butenyl)-3-(4-hydroxyphenyl)-5,7-dihydroxy-4H-1-benzopyran-4-one] | 10 to 50% | 10 to 50% | 10 to 50% | < 10% | < 10% | < 10% | 50 to 100% | < 10% | < 10% | < 10% | < 10% | < 10% | 
6 | COc1c(CC=C(C)C)c(O)cc2oc(=O)c(-c3ccc(O)cc3O)cc12 [Glycycoumarin, 3-(2,4-dihydroxyphenyl)-7-hydroxy-5-methoxy-6-(3-methyl-2-butenyl)-2H-1-benzopyran-2-one] | 10 to 50% | 10 to 50% | 10 to 50% | 10 to 50% | < 10% | < 10% |  | 10 to 50% | 10 to 50% | < 10% | < 10% | < 10% | D
7 | C=CC(C)(C)c1c(O)cc(OC)c2cc(-c3ccc(O)cc3O)c(=O)oc12 [Licoarylcoumarin, 3-(2,4-dihydroxyphenyl)-7-hydroxy-5-methoxy-8-(2-methyl-3-butene-2-yl)coumarin] | 10 to 50% | 10 to 50% | 10 to 50% | 50 to 100% | 10 to 50% | 10 to 50% |  | 50 to 100% | 50 to 100% | 10 to 50% | 10 to 50% | < 10% | D
